Data taken from the NIST ThermoML archive (doi:10.1016/j.jct.2009.01.008).

How the values were obtained:
[1] = xn = mol fraction of the nth substance listed; conditions: 101 kPa, Liquid, Linear variable-path acoustic interferometer
[2] = 101 kPa, Liquid, Linear variable-path acoustic interferometer
[3] = refractive index (Na D-line) (dimensionless); conditions: 298.15 K; 101.33 kPa; Liquid

COC(C)(C)C [2-methoxy-2-methylpropane] + CC(C)CC(C)(C)C
speed of sound [m/s], [1]
Conditions | 298.15 K | 308.15 K | 318.15 K | 328.15 K
x1 = 0.05551 | 1079.2 | 1037.5 | – | –
x1 = 0.08857 | 1077.1 | – | 993.7 | 952.7
x1 = 0.1305 | 1074.8 | 1032.8 | 991.2 | –
x1 = 0.1971 | 1071 | 1028.7 | 986.9 | 945.5
x1 = 0.2599 | 1067.4 | 1024.9 | 983 | 941.5
x1 = 0.3284 | 1063.8 | 1021 | 978.9 | –
x1 = 0.3315 | – | – | – | 936.4
x1 = 0.4078 | 1059.5 | 1016.4 | 973.8 | –
x1 = 0.4756 | 1056.1 | 1012.7 | – | –
x1 = 0.5629 | 1052 | 1008.2 | 964.9 | 922.2
x1 = 0.6184 | 1049.5 | – | – | –
x1 = 0.6831 | 1046.7 | 1002.5 | 958.7 | 915.2
x1 = 0.7456 | 1044.1 | 995.5 | 955.6 | –
x1 = 0.7644 | 1043.4 | – | – | –
x1 = 0.8143 | 1041.7 | – | – | –
x1 = 0.8155 | 1041.5 | 996.6 | 952.4 | –
x1 = 0.8675 | 1039.8 | 994.7 | 950 | –
x1 = 0.9376 | 1037.8 | 992.5 | 947.4 | –
x1 = 1 | 1036.4 | 990.8 | 945.3 | –

COC(C)(C)C [2-methoxy-2-methylpropane] + Cc1ccccc1
speed of sound [m/s], [1]
Conditions | 298.15 K | 308.15 K | 318.15 K | 328.15 K
x1 = 0.1021 | 1277.4 | 1234.5 | 1192 | 1149.9
x1 = 0.2035 | 1250 | 1206.7 | 1163.9 | 1121.6
x1 = 0.2591 | 1234.8 | 1191.3 | 1148.5 | 1106.1
x1 = 0.3321 | 1215.2 | 1171.6 | 1128.4 | 1086.2
x1 = 0.4008 | 1196.7 | 1152.9 | 1109.5 | 1066.9
x1 = 0.4665 | – | – | – | 1049.4
x1 = 0.5323 | – | – | – | 1030.2
x1 = 0.5894 | 1145.8 | 1101.5 | 1057.6 | –
x1 = 0.664 | 1125.8 | 1081.2 | 1037 | –
x1 = 0.7257 | – | – | 1020.4 | 976.5
x1 = 0.7956 | – | 1045.7 | 1001 | 958.4
x1 = 0.8643 | 1072.3 | 1027.1 | 982.4 | –
x1 = 0.9025 | 1062.2 | 1016.8 | 971.6 | –
x1 = 1 | 1036.4 | 990.8 | 945.3 | –

Cc1ccccc1 [toluene]
[2]
Conditions | speed of sound [m/s]
298.15 K | 1305.4
308.15 K | 1262.6
318.15 K | 1220.3
328.15 K | 1178.6

Conditions | refractive index
[3] | 1.4941

Cc1ccccc1 [toluene] + CC(C)CC(C)(C)C
[1], x1 = 1
Conditions | speed of sound [m/s]
298.15 K | 1305.4
308.15 K | 1262.6
318.15 K | 1220.3
328.15 K | 1178.6

Cc1ccccc1 [toluene] + COC(C)(C)C
[1], x2 = 0
Conditions | speed of sound [m/s]
298.15 K | 1305.4
308.15 K | 1262.6
318.15 K | 1220.3
328.15 K | 1178.6
